Laboratory results taken from patent publication US11186577B2, “Vasopressin receptor antagonists and products and methods related thereto” (BlackThorn Therapeutics, Inc., priority 2017, dated 2021).

How the values were obtained:
[1] = biological target: human Arginine Vasopressin Receptor 1a (AVPR1a) (Homo sapiens (Human), UniProt P37288); experiment: Vasopressin V1A receptor antagonist assay (AVP-evoked calcium, FLIPR, CHO-AVPR1a cells); assay type: cell-based; details: read-out: V1a IC50
Method in brief: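 Antagonism measured as reduction of AVP (EC80, set each assay day) calcium response on FLIPR in dye-loaded CHO-AVPR1a cells. Compounds, 3 μM top in 10-point 1:3 dilution, in duplicate, added 15 min before agonist at 37° C.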

MDR1 (P-glycoprotein) = experiment: MDR1-MDCK effective efflux assay (Transwell, 10 μM, 1 hour), MDR1-MDCK cells; assay type: in vitro ADME; details: dog, MDCK-MDR1, pH 7.4, Papp AB MDR1
Description: (§1) The MDR1-MDCK effective efflux assay was performed as described in the BioFocus Standard Operating Procedure, ADME-SOP-56. Both wild-type (WT) and MDR1-MDCK cells (Solvo Biotechnology) were seeded onto 24-well Transwell plates at 2.35×10^5 cells per well and used in confluent monolayers after a 3 day culture at 37° C. under 5% CO2. For both cell types, test and control compounds (propranolol, vinblastine) were added (10 μM, 0.1% DMSO final, n=2) to donor compartments of the Transwell plate assembly in assay buffer (Hanks balanced salt solution supplemented with 25 mM HEPES, adjusted to pH 7.4) for both apical to basolateral (A>B) and basolateral to apical (B>A) measurements. Incubations were performed at 37° C., with samples removed from both donor and acceptor chambers at T=0 and 1 hour and compound analysed by mass spectrometry (LC-MS/MS) including an analytical internal standard.
(§2) Where V is the volume of each Transwell compartment (apical 125 basolateral 600 and concentrations are the relative MS responses for compound (normalized to internal standard) in the donor chamber before incubation and acceptor chamber at the end of the incubation. Area=area of cells exposed for drug transfer (0.33 cm2).
(§3) Efflux ratios (Papp B>A/Papp A>B) were calculated for each compound from the mean Papp values in each direction for both wild-type and MDR1-MDCK cells.
(§4) In order to confirm the involvement of MDR1 in any efflux seen, an “effective efflux ratio” (EER) was calculated by comparing compound efflux ratios (ER) in the two cell types, i.e. EER=ER(MDR1−MDCK)/ER(wild-type MDCK)
(§5) This ratio illustrates the effect of the over-expressed MDR1 normalised for the background movement of compound through the wild-type cells.
(§6) Lucifer Yellow (LY) was added to the apical buffer in all wells to assess viability of the cell layer. Compound recovery from the wells was determined from MS responses (normalized to internal standard) in donor and acceptor chambers at the end of incubation compared to response in the donor chamber pre-incubation.

MDR1-MDCK cells = experiment: as above; assay type: in vitro ADME; details: MDCK-MDR1
Description: as §1, §2, §3, §4, §5, §6

[2] = biological target: human Oxytocin Receptor (hOTR) (Homo sapiens (Human), UniProt P30559); experiment: Oxytocin receptor antagonist assay (oxytocin-evoked calcium, FLIPR, CHEM-1-hOTR cells); assay type: cell-based; details: read-out: OT IC50
Method in brief: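 Oxytocin-evoked intracellular calcium rise measured by FLIPR^TETRA fluorescence (Calcium-6 dye, 3 min read) in CHEM-1-hOTR cells. Test compounds, 10-point 1:3 dilutions, were added 15 min at 37 °C before an EC80 oxytocin challenge (EC80 set each assay day); buffer HBSS with 20 mM HEPES.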

[3] = tested on: wild-type (WT) MDCK cells; experiment: MDR1-MDCK effective efflux assay (Transwell, 10 μM, 1 hour), wild-type MDCK cells; assay type: in vitro ADME; details: MDCK
Description: as §1, §2, §3, §4, §5, §6

[4] = as above; assay type: in vitro ADME; details: dog, MDCK, pH 7.4, Papp AB WT
Description: as §1, §2, §3, §4, §5, §6

MDR1 (P-gp) = experiment: in vitro; details: dog, MDCK-MDR1

human Arginine Vasopressin Receptor 1a (AVPR1a), sequence (P37288 whole entry): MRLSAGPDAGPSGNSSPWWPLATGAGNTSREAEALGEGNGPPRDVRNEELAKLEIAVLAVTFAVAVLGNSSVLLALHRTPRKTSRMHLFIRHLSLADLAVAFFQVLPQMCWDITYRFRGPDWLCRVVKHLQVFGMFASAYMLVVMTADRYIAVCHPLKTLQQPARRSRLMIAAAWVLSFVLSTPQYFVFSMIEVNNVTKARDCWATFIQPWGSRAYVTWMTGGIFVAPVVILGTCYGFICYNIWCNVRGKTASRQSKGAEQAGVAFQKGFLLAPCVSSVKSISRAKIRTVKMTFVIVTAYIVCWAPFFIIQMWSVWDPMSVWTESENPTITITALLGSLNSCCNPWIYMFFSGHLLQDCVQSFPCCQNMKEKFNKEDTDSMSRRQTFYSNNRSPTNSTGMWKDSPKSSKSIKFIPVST
human Oxytocin Receptor (hOTR), sequence (P30559 whole entry): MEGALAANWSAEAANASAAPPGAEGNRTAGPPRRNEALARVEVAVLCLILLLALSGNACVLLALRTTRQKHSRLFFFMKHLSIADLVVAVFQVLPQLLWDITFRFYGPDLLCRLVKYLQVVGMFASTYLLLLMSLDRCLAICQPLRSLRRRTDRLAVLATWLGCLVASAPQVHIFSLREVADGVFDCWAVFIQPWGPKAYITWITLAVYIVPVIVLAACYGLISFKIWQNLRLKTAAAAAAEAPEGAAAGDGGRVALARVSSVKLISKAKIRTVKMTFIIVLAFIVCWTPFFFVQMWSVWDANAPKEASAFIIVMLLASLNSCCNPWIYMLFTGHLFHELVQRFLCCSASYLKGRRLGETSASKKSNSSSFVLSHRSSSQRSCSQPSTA

Row | SMILES | IC50 [1] | Papp A→B at 1 h, 10 μM (MDR1 (P-glycoprotein)) | MDR1 EER (MDR1-MDCK cells) | MDR1 ER (MDR1-MDCK cells) | IC50 [2] | WT ER [3] | Papp A→B at 1 h, 10 μM [4] | Papp A→B at 2 h (MDR1 (P-gp))
1 | CCC(=O)N1Cc2cc(Cl)ccc2-n2c(nnc2C2CC3(C2)CN(C(=O)C2CC2)C3)C1 [compound 16] | < 0.1 µM | < 7 ×10⁻⁶ cm/s | ++ | + | > 1 µM | + | < 7 ×10⁻⁶ cm/s | 
2 | O=C(C1CC1)N1Cc2cc(Cl)ccc2-n2c(nnc2C2CC3(C2)CN(c2ccccn2)C3)C1 [compound 65] | < 0.1 µM | < 7 ×10⁻⁶ cm/s | + | + | > 1 µM | ++++ | > 20 ×10⁻⁶ cm/s | 
3 | CC(=O)N1Cc2cc(Cl)ccc2-n2c(nnc2C2CC3(C2)CN(c2ccccn2)C3)C1 [compound 73] | < 0.1 µM | < 7 ×10⁻⁶ cm/s | + | + | > 1 µM | + | 10 to 20 ×10⁻⁶ cm/s | 
4 | O=C(C1CC1)N1Cc2cc(Cl)ccc2-n2c(nnc2C2CC3(C2)CN(c2ccc(F)cn2)C3)C1 [compound 74] | < 0.1 µM | < 7 ×10⁻⁶ cm/s | + | + | > 1 µM | +++ | > 20 ×10⁻⁶ cm/s | 
5 | COC(=O)N1Cc2cc(Cl)ccc2-n2c(nnc2C2CC3(C2)CN(c2ncc(F)cn2)C3)C1 [compound 92] | < 0.1 µM | 7 to 10 ×10⁻⁶ cm/s | + | + | > 1 µM | +++ | > 20 ×10⁻⁶ cm/s | 
6 | CC(=O)N1Cc2cc(Cl)ccc2-n2c(nnc2C2CC3(C2)CN(c2cnccn2)C3)C1 [compound 93] | < 0.1 µM | < 7 ×10⁻⁶ cm/s | + | + | > 1 µM | + | < 7 ×10⁻⁶ cm/s | 
7 | CC(=O)N1Cc2cc(Cl)ccc2-n2c(nnc2C2CC3(C2)CN(c2cccc(C#N)n2)C3)C1 [compound 94] | < 0.1 µM | < 7 ×10⁻⁶ cm/s | + | + | > 1 µM | + | 10 to 20 ×10⁻⁶ cm/s | 
8 | CCC(=O)N1Cc2cc(Cl)ccc2-n2c(nnc2C2CC3(C2)CN(c2ncccn2)C3)C1 [compound 107, 1-(8-chloro-1-(2-(pyrimidin-2-yl)-2-azaspiro[3.3]heptan-6-yl)-4H-benzo[f][1,2,4]triazolo[4,3-a][1,4]diazepin-5(6H)-yl)propan-1-one] | < 0.1 µM | < 7 ×10⁻⁶ cm/s | + | + | > 1 µM | + | 10 to 20 ×10⁻⁶ cm/s | 
9 | CCC(=O)N1Cc2cc(Cl)ccc2-n2c(nnc2C2CC3(C2)CN(c2cnccn2)C3)C1 [compound 110] | < 0.1 µM | < 7 ×10⁻⁶ cm/s | + | + | > 1 µM | + | 10 to 20 ×10⁻⁶ cm/s | 
10 | CCC(=O)N1Cc2cc(Cl)ccc2-n2c(nnc2C2CC3(C2)CN(c2cccc(F)n2)C3)C1 [compound 113] | < 0.1 µM | < 7 ×10⁻⁶ cm/s | + | + | > 1 µM | +++ | > 20 ×10⁻⁶ cm/s | 
11 | O=C(C1CCC1)N1Cc2cc(Cl)ccc2-n2c(nnc2C2CC3(C2)CN(c2ccc(F)cn2)C3)C1 [compound 114] | < 0.1 µM | < 7 ×10⁻⁶ cm/s | + | + | > 1 µM | + | < 7 ×10⁻⁶ cm/s | 
12 | O=C(C(F)F)N1Cc2cc(Cl)ccc2-n2c(nnc2C2CC3(C2)CN(c2ccc(F)cn2)C3)C1 [compound 116] | < 0.1 µM | < 7 ×10⁻⁶ cm/s | + | + | > 1 µM | ++++ | > 20 ×10⁻⁶ cm/s | 
13 | CCC(=O)N1Cc2cc(Cl)ccc2-n2c(nnc2C2CC3(C2)CN(c2cccc(C#N)n2)C3)C1 [compound 125] | < 0.1 µM | < 7 ×10⁻⁶ cm/s | + | + | > 1 µM | +++ | > 20 ×10⁻⁶ cm/s | 
14 | O=C(N1Cc2cc(Cl)ccc2-n2c(nnc2C2CC3(C2)CN(c2ccc(F)cn2)C3)C1)C1(F)CC1 [compound 156] | < 0.1 µM | 10 to 20 ×10⁻⁶ cm/s | ++ | + | > 1 µM | +++ | > 20 ×10⁻⁶ cm/s | 
15 | CC1c2nnc(C3CC4(C3)CN(c3ccc(F)cn3)C4)n2-c2ccc(Cl)cc2CN1C(=O)OC1CC(F)(F)C1 (stereo not shown) [compound 193, 3,3-difluorocyclobutyl 8-chloro-1-(2-(5-fluoropyridin-2-yl)-2-azaspiro[3.3]heptan-6-yl)-4-methyl-4H-benzo[f][1,2,4]triazolo[4,3-a][1,4]diazepine-5(6H)-carboxylate] | < 0.1 µM | > 20 ×10⁻⁶ cm/s | +++ | +++ | > 1 µM | +++ | > 20 ×10⁻⁶ cm/s | 
16 | Cc1cccc(N2CC3(CC(c4nnc5n4-c4ccc(Cl)cc4CN(C4CC4)C5)C3)C2)n1 [compound 218] | < 0.1 µM |  |  |  |  |  |  | > 20 ×10⁻⁶ cm/s
17 | Cc1nc(N2CC3(CC(c4nnc5n4-c4ccc(Cl)cc4CN(C4CC4)C5)C3)C2)ncc1F [compound 220] | < 0.1 µM |  |  |  |  |  |  | > 20 ×10⁻⁶ cm/s
18 | Fc1cnc(N2CC3(CC(c4nnc5n4-c4ccc(Cl)cc4CN(C4CC4)C5)C3)C2)nc1 [compound 224] | < 0.1 µM |  |  |  |  |  |  | > 20 ×10⁻⁶ cm/s
19 | Clc1ccc2c(c1)CN(C1CC1)Cc1nnc(C3CC4(C3)CN(c3ncccn3)C4)n1-2 [compound 225] | < 0.1 µM |  |  |  |  |  |  | > 20 ×10⁻⁶ cm/s
20 | O=C(C1CC1)N1CC2(CC(c3nnc4n3-c3ccc(Cl)cc3CN(C3CC3)C4)C2)C1 [compound 226, (6-(8-chloro-5-cyclopropyl-5,6-dihydro-4H-benzo[1,2,4]triazolo[4,3-a][1,4]diazepin-1-yl)-2-azaspiro[3.3]heptan-2-yl)(cyclopropyl)methanone] |  |  |  |  |  |  |  | < 7 ×10⁻⁶ cm/s
21 | Cc1nc(N2CC3(CC(c4nnc5n4-c4ccc(Cl)cc4CN(C)C5)C3)C2)ccc1F [compound 242] | < 0.1 µM |  |  |  |  |  |  | > 20 ×10⁻⁶ cm/s
22 | Fc1ccc(N2CC3(CC(c4nnc5n4-c4ccc(Cl)cc4CN(CC(F)(F)F)C5)C3)C2)nc1 [compound 259, 8-chloro-1-(2-(5-fluoropyridin-2-yl)-2-azaspiro[3.3]heptan-6-yl)-5-(2,2,2-trifluoroethyl)-5,6-dihydro-4H-benzo[f][1,2,4]triazolo[4,3-a][1,4]diazepine] | < 0.1 µM |  |  |  |  |  |  | > 20 ×10⁻⁶ cm/s
